{
  "source": "patent US12252417B2",
  "about": "“Passive, gravity-driven system for treatment of an effluent in a diagnostic system” (Ventana Medical Systems, Inc., priority 2016, dated 2025)",
  "key": {"[1]": {"experiment": "Thermal radical initiator screening, DAB decomposition by sonication in BenchMark Reaction Buffer", "conditions": "for Sonication time after which no DAB monomer was detectable: DAB 68.1 mg/L in BenchMark Reaction Buffer, initiator approx. 0.0882 mmol per 25 mL; for Effect on DAB decomposition with sonication: BenchMark Reaction Buffer", "procedure": "Sonication can form acoustic cavitation in liquids causing the formation, growth and implosive collapse of bubbles and heat generation. Sonication was used to thermally activate thermal radical initiators to induce DAB decomposition. Thermal radical initiator screening experiments were performed using a MisonixSonicator 3000 Ultrasonic Liquid Processor. The sonicator voltage converter and horn were connected to a microtip probe. […] A DAB sample in RTD BenchMark Reaction Buffer (68.1 mg/L) was sonicated with or without the presence of a thermal radical initiator. […] The sonication mixed the sample efficiently."}, "[2]": {"experiment": "Radical initiator screening in DAB UV oxidation (Aquatop 10 W in-line UV sterilizer, BenchMark Reaction Buffer)", "conditions": "for Impact on DAB UV oxidation: 30 min UV exposure, relative to no initiator; for % Loss DAB (30 min UV): DAB 68.1 mg/L in BenchMark Reaction Buffer, initiator approx. 0.882 mmol per 250 mL, 10 W"}, "[3]": {"experiment": "DAB UV oxidation in in-line UV sterilizer, DDI water matrix", "format": "physicochemical", "procedure": "A DAB sample in DDI water (68.1 mg/L) was treated with 3% hydrogen peroxide as a radical initiator (1 mL per approx. 225 mL DAB sample). […] Mixing aided the diffusion of the homolytic hydrogen peroxide UV oxidation product (HO·), which oxidized DAB.\nThe sample was irradiated by UV light (60 to 90 min)."}, "[4]": {"experiment": "DAB UV oxidation in in-line UV sterilizers, BenchMark IHC waste matrix", "conditions": "for UV irradiation time for DAB monomer to decrease to LOD: 55 W", "method": "DAB degradation rates were determined using HPLC analysis to monitor DAB concentration change in Milli-Q® deionized (“DDI”) water, BenchMark Reaction Buffer and BenchMark IHC waste matrices. HPLC analyses were performed on a Waters Acquity Ultra Performance Liquid Chromatography (“UPLC”) instrument with photodiode array (“PDA”) detection. Standard reverse phase chromatography was used for UPLC analyses in BenchMark Reaction Buffer and DDI water matrices. Reverse phase HPLC chromatography with ion-pairing was used for DAB analysis in BenchMark waste. DAB samples were analyzed without filtration or dilution.\nA SIELC PrimeSep S column 2.1×100 mm (5μ) and 2.1×10 mm guard column HPLC column was used. The eluents were 40% acetonitrile in 50 mM ammonium formate (pH=4.0). The flow rate was 0.2 mL/min, the gradient profile was an isocratic elution, the column temperature was 30° C., and the injection volume was 8 μL. The PDA detection wavelengths were 210 to 499 nm (2.4 nm resolution and 20 pts/sec). The expected retention time (in BenchMark waste) for DAB and 2-HOPyr was 2.56 min and 1.64 min, respectively.\nMultiple UV irradiation flow-through systems were used to examine UV promoted DAB oxidation. A commercial in-line UV water sterilizers with preset lamp wattage and UV irradiation chamber geometry, namely, an Aquatop 10 W In-line UV sterilizer (Aquatop p/n: IL10-UV), was used to treat water up to a 211 gallon/hour flow rate. The sterilizer featured an external variable-speed micropump gear pump that controlled fluid flow rates with the assistance of an independent power supply. Samples were irradiated with active mixing, dwell mixing, or no mixing. For in-line UV sterilizers that were used without mixing pumps, inversion mixing was performed to create a uniform sample prior to sampling. Multiple UV sterilizer UV lamp wattages were examined (10, 18 and 55 W). Multiple UV irradiation sources may be installed adjacently with serial connection to each other to increase effluent exposure time.\nDAB UV oxidation experiments were performed in the Aquatop 10 W in-line UV sterilizer as above with variable sample matrices (i.e. DDI water versus BenchMark IHC Waste). […] A fresh BenchMark Ultra OptiView DAB with TSA Amp IHC Waste was used for this experiment where the aqueous layer was separated from a majority of the LCS by gravity. The BenchMark IHC Waste still contained some LCS, which was finely dispersed with the BenchMark IHC waste surfactants. Both samples were irradiated by UV light for 75 minutes. The Aquatop in-line sterilizer was inverted (2×) using an air pocket to mix the matrix uniformly prior to sampling. The reaction mixture was analyzed by UPLC every 10 minutes.\nDAB UV oxidation experiments were performed within in-line UV water sterilizers with different UV lamp wattages. […] The Aquatop in-line sterilizer was inverted (2×) using an air pocket to mix the matrix uniformly prior to sampling. The reaction mixture was analyzed by UPLC every 10 minutes."}, "[5]": {"experiment": "DAB UV oxidation in 36 W top-down UV irradiation test bed, Reaction Buffer matrix", "format": "physicochemical", "procedure": "As shown in FIGS. 9A-9C, a test bed was prepared to investigate top-down UV irradiation systems without direct liquid contact to the UV irradiation source (also referred to as “UV lamp light”). This test bed used two 18 W lamps to irradiate the fluid matrix from above while the liquid meandered through a predetermined path in the metal tray below to control sample exposure time. The UV light sources may be installed adjacently in parallel connection to each other (e.g. UV light array, etc.) to increase the power of the array. Alternatively, the UV light sources may be installed serially to increase exposure time. A second bottom irradiation plastic container was prepared without the pathway. UV light is absorbed as it goes through a liquid medium causing the aqueous layer furthest from the lamp to receive less UV irradiation. This test bed was used to examine liquid layer thickness and waste matrix impurities (i.e. LCS, DAB oxidation products, etc.) impact on DAB UV decomposition rates.\nThe 36 W top-down UV irradiation test bed without direct sample liquid contact to the UV light source was used to investigate matrix layer thickness tolerance during DAB UV irradiation (FIGS. 9A-9C). UV light is absorbed as it goes through a liquid medium causing the aqueous layer furthest from the lamp to receive less UV irradiation. A DAB sample in Reaction Buffer matrix was prepared at the expected waste concentration with approximately 20% (v/v) LCS. OptiView DAB IHC detection kit DAB chromogen, detection peroxide and inhibitor peroxide reagents were added to BenchMark Reaction Buffer matrix (143 μL each reagent per 250 mL). The 36 W top-down UV irradiation test bed bottom was filled with a specific matrix layer thickness (i.e. 10-, 20- or 30-mm thickness). The DAB sample was treated with UV irradiation without mixing and a sample was removed every 2 minutes to 10 minutes and then every 5 minutes thereafter through 30 minutes. The matrix sample was analyzed by RP UPLC.\nThe 36 W top-down UV irradiation test bed without direct sample liquid contact to the UV light source was used to investigate how LCS could be tolerated during DAB UV irradiation in a top-down configuration. A DAB sample in Reaction Buffer matrix was prepared at the expected waste concentration with or without approximately 20% (v/v) LCS. OptiView DAB IHC detection kit DAB chromogen, detection peroxide and inhibitor peroxide reagents were added to Reaction Buffer matrix (143 μL each reagent per 250 mL). These Reaction Buffer/LCS mixed matrix was tested with LCS not mixed, mixed by inversion 20× to form an initial bubble LCS emulsion, and vigorously mixed to form an initial opaque LCS emulsion.\nThe 36 W top-down UV irradiation test bed bottom was filled with a 10 mm volume layer thickness. The DAB sample was treated with UV irradiation without mixing and a sample was removed every 2 minutes to 10 minutes and then every 5 minutes thereafter through 30 minutes. The matrix sample was analyzed by RP UPLC. […] These DAB intermediates remained in solution longer when the opaque white LCS layer was present."}},
  "note": "Entries after “also recorded” stand apart in the source; their conditions may differ.",
  "data": [
    {"smiles": "O=C(OOC(=O)c1ccccc1)c1ccccc1", "note": "[Benzoyl Peroxide, benzoyl peroxide]", "values": [
      {"measurement": "Sonication time after which no DAB monomer was detectable", "setting": "[1]", "result": 5, "unit": "min"},
      {"measurement": "Impact on DAB UV oxidation", "setting": "[2]", "result": "decreased the amount of DAB monomer found in solution"},
      {"measurement": "% Loss DAB (30 min UV)", "setting": "[2]", "result": 72, "unit": "%"}
    ]},
    {"smiles": "Nc1ccc(C(=O)c2ccccc2)cc1", "note": "[ABP, 4-amino-benzophenone]", "values": [
      {"measurement": "Impact on DAB UV oxidation", "setting": "[2]", "result": "appeared to inhibit DAB oxidation"},
      {"measurement": "% Loss DAB (30 min UV)", "setting": "[2]", "result": 16, "unit": "%"}
    ]},
    {"smiles": "CC(C#N)(CCC(=O)O)N=NC(C)(C#N)CCC(=O)O", "note": "(stereo not shown) [4,4′-azobis(4-cyanovaleric acid)]", "values": [
      {"measurement": "Effect on DAB decomposition with sonication", "setting": "[1]", "result": "promoted DAB oxidation with sonication"}
    ]},
    {"smiles": "N.N.O=S(=O)(O)OOS(=O)(=O)O", "note": "[APS, ammonium persulfate]", "values": [
      {"measurement": "Sonication time after which no DAB monomer was detectable", "setting": "[1]", "result": "≤ 5", "unit": "min"},
      {"measurement": "% Loss DAB (30 min UV)", "setting": "[2]", "result": 100, "unit": "%"},
      {"measurement": "DAB loss", "setting": "[2]; after 2 minutes exposure to the initiator", "result": "> 95", "unit": "%"}
    ]},
    {"smiles": "Nc1ccc(-c2ccc(N)c(N)c2)cc1N", "note": "[DAB, 3,3′-diaminobenzidine]", "values": [
      {"measurement": "DAB monomer detected", "setting": "[3]; 10 W in-line UV sterilizer, 15 minutes of static UV irradiation without any mixing", "result": "Approximately 34%"},
      {"measurement": "DAB monomer still detectable", "setting": "[3]; 10 W, 60 minutes UV irradiation, absence of hydrogen peroxide", "result": "Approximately 10%"},
      {"measurement": "UV irradiation time after which no DAB monomer was detected", "setting": "[3]; 10 W, presence of hydrogen peroxide (1 mL 3% per approx. 225 mL)", "result": 50, "unit": "min"},
      {"measurement": "UV irradiation time after which DAB monomer was not detectable", "setting": "[3]; 55 W UV in-line sterilizer, RP UPLC, data not shown", "result": "20 to 30", "unit": "min"},
      {"measurement": "DAB monomer by UPLC after storage overnight at 10° C.", "setting": "[3]; samples that received only 2 minutes UV irradiation", "result": "not detected; also recorded: No DAB monomer was detected"},
      {"measurement": "Time to DAB monomer at or below HPLC LOD", "setting": "[4]; BenchMark IHC waste, 10 W, 3 mL 3% peroxide per 250 mL", "result": "≤ 30", "unit": "min"},
      {"measurement": "UV irradiation time for DAB monomer to decrease below LOD", "setting": "[4]; BenchMark IHC waste, 18 W, 3% hydrogen peroxide 20 mL per approx. 1.5 L", "result": "Approximately 90 minutes"},
      {"measurement": "UV irradiation time for DAB monomer to decrease to LOD", "setting": "[4]; BenchMark IHC waste, 3% hydrogen peroxide 20 mL per approx. 1.5 L", "result": 30, "unit": "min"},
      {"measurement": "DAB monomer still detectable", "setting": "[4]; BenchMark waste, 10 W, 60 minutes UV irradiation, without hydrogen peroxide", "result": "about 21%"},
      {"measurement": "UV irradiation time for DAB monomer to decrease to LOD", "setting": "[4]; both BenchMark IHC waste matrices (with and without LCS emulsion), hydrogen peroxide", "result": "30 to 40", "unit": "min"},
      {"measurement": "DAB monomer still detectable", "setting": "[2]; BenchMark Reaction Buffer, 60 minutes UV irradiation, absence of hydrogen peroxide", "result": "Approximately 38%"},
      {"measurement": "DAB monomer detected", "setting": "[2]; BenchMark Reaction Buffer, 60 minutes of UV irradiation, presence of hydrogen peroxide", "result": "Less than 5%"},
      {"measurement": "UV irradiation time to no DAB intermediates (dimers, trimers)", "setting": "[5]; 10 mm matrix layer thickness", "result": "15 to 20", "unit": "min"},
      {"measurement": "UV irradiation time to no DAB intermediates (dimers, trimers)", "setting": "[5]; 20 mm matrix layer thickness", "result": 25, "unit": "min"},
      {"measurement": "UV irradiation time to no DAB intermediates (dimers, trimers)", "setting": "[5]; 30 mm matrix layer thickness, intermediates still shown", "result": "> 30", "unit": "min"},
      {"measurement": "UV irradiation time to no DAB intermediates", "setting": "[5]; Reaction Buffer only matrix, 10 mm layer", "result": "4 to 6", "unit": "min"},
      {"measurement": "UV radiation time after which no DAB monomer was detected", "setting": "[5]; all aqueous layer thicknesses (10, 20, 30 mm), approx. 20% (v/v) LCS, no mixing", "result": "2 to 4", "unit": "min"},
      {"measurement": "UV radiation time after which no DAB monomer was detected", "setting": "[5]; all sample matrices (with or without LCS, emulsions), 10 mm layer", "result": "2 to 4", "unit": "min"},
      {"measurement": "UV irradiation time to no DAB intermediates", "setting": "[5]; clear LCS layered matrix, 10 mm layer", "result": "10 to 15", "unit": "min"},
      {"measurement": "UV irradiation time to no DAB intermediates", "setting": "[5]; other LCS emulsion samples, 10 mm layer", "result": "20 to 25", "unit": "min"}
    ]},
    {"smiles": "CCN(CC)c1ccc(C(=O)c2ccc(N(CC)CC)cc2)cc1", "note": "[BDABP, 4,4′-bisdiethylaminobenzophenone]", "values": [
      {"measurement": "Impact on DAB UV oxidation", "setting": "[2]", "result": "decreased the amount of DAB monomer found in solution"},
      {"measurement": "% Loss DAB (30 min UV)", "setting": "[2]", "result": 68, "unit": "%"}
    ]},
    {"smiles": "OO", "note": "[Hydrogen Peroxide, hydrogen peroxide]", "values": [
      {"measurement": "Solubility in water", "result": "completely soluble in water"},
      {"measurement": "Effect on DAB decomposition with sonication", "setting": "[1]", "result": "failed to show any substantial DAB decomposition"},
      {"measurement": "% Loss DAB (30 min UV)", "setting": "[2]", "result": 96, "unit": "%"}
    ]},
    {"smiles": "CC(C)(N=NC(C)(C)C(=N)N)C(=N)N", "note": "[2,2′-azobis(2-methylpropionatnidine)]", "values": [
      {"measurement": "Effect on DAB decomposition with sonication", "setting": "[1]", "result": "promoted DAB oxidation with sonication"}
    ]},
    {"smiles": "CC(=O)OO", "note": "[Peracetic Acid, peracetic acid]", "values": [
      {"measurement": "Solubility in water", "result": "completely soluble in water"},
      {"measurement": "Impact on DAB UV oxidation", "setting": "[2]", "result": "decreased the amount of DAB monomer found in solution"},
      {"measurement": "% Loss DAB (30 min UV)", "setting": "[2]", "result": 73, "unit": "%"}
    ]},
    {"smiles": "CC(C)(C#N)N=NC(C)(C)C#N", "note": "[AIBN, azobisisobutyronitrile]", "values": [
      {"measurement": "Sonication time after which no DAB monomer was detectable", "setting": "[1]", "result": 25, "unit": "min"},
      {"measurement": "Impact on DAB UV oxidation", "setting": "[2]", "result": "minimal impact on DAB UV oxidation"},
      {"measurement": "% Loss DAB (30 min UV)", "setting": "[2]", "result": 64, "unit": "%"}
    ]},
    {"smiles": "CC1(C)CCCC(C)(C)N1[O]", "note": "[TEMPO]", "values": [
      {"measurement": "Impact on DAB UV oxidation", "setting": "[2]", "result": "appeared to inhibit DAB oxidation"},
      {"measurement": "% Loss DAB (30 min UV)", "setting": "[2]", "result": 45, "unit": "%"}
    ]}
  ]
}
